The subject of series [1] is NCI-H460. The experiment in a line: Induction of cell cycle arrest in human NCI-H460 cells assessed as accumulation of cells at G0/1 phase at 0.26 uM after 72 hrs by flow cytometry (reference value: 46.8%). The series is classed as functional.
For series [2], the system named is NCI-H460. The experiment in a line: Induction of cell cycle arrest in human NCI-H460 cells assessed as accumulation of cells at S phase at 0.26 uM after 72 hrs by flow cytometry (reference value: 32.1%). The series is classed as functional. For orientation: A flow cytometer gives signals particle by particle.
For series [3], the system named is A2780. The experiment in a line: Induction of cell cycle arrest in human A2780 cells assessed as accumulation of cells at sub-G1 phase at 0.95 uM after 72 hrs by flow cytometry (reference value: 1.6%). In kind it is functional.
For series [4], the system named is A2780. The experiment in a line: Induction of cell cycle arrest in human A2780 cells assessed as accumulation of cells at G0/1 phase at 0.95 uM after 72 hrs by flow cytometry (reference value: 48.7%). The series is classed as functional.
The subject of series [5] is A2780. The experiment in a line: Induction of cell cycle arrest in human A2780 cells assessed as accumulation of cells at G2/M phase at 0.95 uM after 72 hrs by flow cytometry (reference value: 15%). The series is classed as functional.
The test system of series [6] is MM473. The experiment in a line: Induction of cell cycle arrest in human MM473-Luc cells assessed as accumulation of cells at G0/1 phase at 1.4 uM after 72 hrs by flow cytometry (reference value: 74.7%). The series is classed as functional.
The subject of series [7] is MM473. The experiment in a line: Induction of cell cycle arrest in human MM473-Luc cells assessed as accumulation of cells at S phase at 1.4 uM after 72 hrs by flow cytometry (reference value: 13.7%). The series is classed as functional.
Series [8] concerns NCI-H460. The experiment in a line: Down-regulation of POLA1 protein expression in human NCI-H460 cells at 0.26 uM measured by Western blot analysis. The series is classed as functional, cell-based. For orientation: Immunoblotting shows a protein as a band on a membrane.
Series [9] is described as follows: Antitumor activity against human MM487 cells xenografted in mouse assessed as tumor growth inhibition at 50 mg/kg, po bid administered 5 times a week for 3 weeks. The series is classed as functional. As to conditions: MM487, 504 h, read-out: TGI.
Series [10] has as its target T1, Histone deacetylase 11 (Homo sapiens) (UniProt Q96DB2).
T1 sequence (whole entry): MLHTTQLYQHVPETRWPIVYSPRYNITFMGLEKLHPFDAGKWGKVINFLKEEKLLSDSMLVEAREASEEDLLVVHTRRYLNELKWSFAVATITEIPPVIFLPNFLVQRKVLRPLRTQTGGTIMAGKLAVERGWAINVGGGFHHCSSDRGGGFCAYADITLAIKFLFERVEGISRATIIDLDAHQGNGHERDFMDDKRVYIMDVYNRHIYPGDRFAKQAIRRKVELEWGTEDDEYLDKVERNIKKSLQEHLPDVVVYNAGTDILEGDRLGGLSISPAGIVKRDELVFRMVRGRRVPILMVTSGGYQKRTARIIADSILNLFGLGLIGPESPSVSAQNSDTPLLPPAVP
The experiment in a line: Inhibition of HDAC11 in human MM473 cells at 0.1 to 0.4 uM assessed as increase in p21 level and measured by Western blot analysis. In kind it is cell-based. As to conditions: dose 0.1-0.4 µM.

Series [11] concerns the target T1, Histone deacetylase 11 (Homo sapiens). The experiment in a line: Inhibition of HDAC11 in human MM487 cells at 0.1 to 0.4 uM assessed as increase in p21 level and measured by Western blot analysis. The conditions noted are these: dose 0.1-0.4 µM. The series is classed as cell-based.
The test system of series [12] is MM473. The experiment in a line: Induction of DNA damage in human MM473 cells at 0.1 to 0.4 uM assessed as increase in p-H2AX levels and measured by Western blot analysis. In kind it is functional, cell-based. The conditions noted are these: dose 0.1-0.4 µM.
The next series concerns MM487. The experiment in a line: Induction of DNA damage in human MM487 cells at 0.1 to 0.4 uM assessed as increase in p-H2AX levels and measured by Western blot analysis. In kind it is functional, cell-based. The conditions noted are these: dose 0.1-0.4 µM.
Series [13] has as its system NCI-H460. The experiment in a line: Induction of cell cycle arrest in human NCI-H460 cells assessed as accumulation of cells at G0/1 phase at 0.25 uM after 72 hrs by flow cytometry (reference value: 46.8%). In kind it is functional.
The test system of series [14] is NCI-H460. The experiment in a line: Induction of cell cycle arrest in human NCI-H460 cells assessed as accumulation of cells at S phase at 0.25 uM after 72 hrs by flow cytometry (reference value: 32.1%). In kind it is functional.
For series [15], the system named is A2780. The experiment in a line: Induction of cell cycle arrest in human A2780 cells assessed as accumulation of cells at sub-G1 phase at 0.6 uM after 72 hrs by flow cytometry (reference value: 1.6%). In kind it is functional.
Series [16] deals with A2780. The experiment in a line: Induction of cell cycle arrest in human A2780 cells assessed as accumulation of cells at G2/M phase at 0.6 uM after 72 hrs by flow cytometry (reference value: 15%). The series is classed as functional.
The test system of series [17] is MM473. The experiment in a line: Induction of cell cycle arrest in human MM473-Luc cells assessed as accumulation of cells at G0/1 phase at 1.2 uM after 72 hrs by flow cytometry (reference value: 74.7%). In kind it is functional.
For series [18], the system named is MM473. The experiment in a line: Induction of cell cycle arrest in human MM473-Luc cells assessed as accumulation of cells at S phase at 1.2 uM after 72 hrs by flow cytometry (reference value: 13.7%). The series is classed as functional.
Series [19] has as its system MM473. The experiment in a line: Induction of cell cycle arrest in human MM473-Luc cells assessed as accumulation of cells at G2/M phase at 1.2 uM after 72 hrs by flow cytometry (reference value: 11.7%). The series is classed as functional.
Series [20] is described as follows: Induction of cell cycle arrest in human H460-R9A cells assessed as accumulation of cells at sub-G1 phase at 2.8 uM after 72 hrs by flow cytometry (reference value: 1.5%). The series is classed as functional.
Series [21] in a line: Induction of cell cycle arrest in human H460-R9A cells assessed as accumulation of cells at G0/1 phase at 2.8 uM after 72 hrs by flow cytometry (reference value: 50.1%). In kind it is functional.
Series [22] is described as follows: Induction of cell cycle arrest in human H460-R9A cells assessed as accumulation of cells at G2/M phase at 2.8 uM after 72 hrs by flow cytometry (reference value: 15.4%). The series is classed as functional.
Series [23] has as its system NCI-H460. The experiment in a line: Down-regulation of POLA1 protein expression in human NCI-H460 cells at 0.25 uM measured by Western blot analysis. The series is classed as functional, cell-based.
Series [24] in a line: Toxicity in mouse xenografted with human NCI-H460 cells assessed as body weight loss at 50 mg/kg, po qd administered 5 times a week for 3 to 4 weeks. In kind it is organism-based. As to conditions: in vivo, time 3-4 weeks. (In general: Xenograft models place foreign cells or tissue in a host animal.)
A short description of series [25]: Toxicity in mouse xenografted with human H460-R9A cells assessed as body weight loss at 50 mg/kg, po qd administered 5 times a week for 3 to 4 weeks. The series is classed as organism-based. As to conditions: in vivo, time 3-4 weeks.
The nature of series [26]: Antitumor activity against human H460-R9A cells xenografted in mouse assessed as tumor growth inhibition at 50 mg/kg, po qd administered 5 times a week for 3 to 4 weeks. In kind it is functional. The conditions noted are these: time 3-4 weeks, read-out: TGI.
Series [27] concerns NCI-H460. The experiment in a line: Induction of cell cycle arrest in human NCI-H460 cells assessed as accumulation of cells at G0/1 phase at 0.12 uM after 72 hrs by flow cytometry (reference value: 46.8%). In kind it is functional.
For series [28], the system named is NCI-H460. The experiment in a line: Induction of cell cycle arrest in human NCI-H460 cells assessed as accumulation of cells at S phase at 0.12 uM after 72 hrs by flow cytometry (reference value: 32.1%). The series is classed as functional.
Series [29] can be described thus: Induction of cell cycle arrest in human H460-R9A cells assessed as accumulation of cells at sub-G1 phase at 2.2 uM after 72 hrs by flow cytometry (reference value: 1.5%). The series is classed as functional.
Series [30] in a line: Toxicity in mouse xenografted with human H460-R9A cells assessed as body weight loss at 20 mg/kg, po qd administered 5 times a week for 3 to 4 weeks. In kind it is organism-based. The conditions noted are these: in vivo, time 3-4 weeks.

Molecules are shown by their SMILES. Activity calls are given as the source filed them. No cut-off for these calls is given here.

With `CC(Oc1ccc(-c2ccc(C=CC(=O)O)cc2)cc1C12CC3CC(CC(C3)C1)C2)C(=O)NO` (stereo unspecified), the Activity with NCI-H460 [1] amounted to 10.9%; with NCI-H460 [2] it was 81.4%; with A2780 [3], 23%; with A2780 [4] it was 10.8%; with A2780 [5], 3%; in the series with MM473 [6] it was 2.3%. Also, the Activity in the series on MM473 [7] was found to be 81.6%. Also, the result with NCI-H460 [8] was Active. For the same molecule, the inhibition in vivo at 50 mg/kg in [9] is 72%.
Turning to `O=C(O)C=Cc1ccc(-c2ccc(OCC(=O)NO)c(C34CC5CC(CC(C5)C3)C4)c2)cc1`, the inhibition result in series [10] and in series [11] was “Active” each time. Also, the result with MM473 [12], in the series with MM487 and in the series on NCI-H460 [23] was Active. Moreover, the Activity with NCI-H460 [13] was 16.3%; with NCI-H460 [14], 80.9%; with A2780 [15], 33.3%; with A2780 [16], 6.5%; with MM473 [17] it was 23%; in the series on MM473 [18] it was 62.9%. For the same molecule, the Activity in the series on MM473 [19] came to 14.1%; in [20] it was 37.8%; in series [21] it was 49.7%; in series [22], 12.9%; in [24], 0%; in [25], 0%. For the same molecule, the inhibition in vivo at 50 mg/kg in [26] came out at 38%.
Consider `O=C(O)C=Cc1ccc(-c2ccc(O)c(C34CC5CC(CC(C5)C3)C4)c2)cc1`, for which the Activity with NCI-H460 [27] was found to be 13.8%; with NCI-H460 [28], 79.7%; in series [29], 26.7%; in [30], 0%.

(Values after ChEMBL document CHEMBL5154648, “Antitumor activity of novel POLA1-HDAC11 dual inhibitors” (Eur J Med Chem, 2022).)
